Laboratory results from paper PMC8007834, “Anti-estrogenic and anti-aromatase activities of citrus peels major compounds in breast cancer” (Scientific Reports, 2021).
Converted amounts (≈) assume the structure as drawn.

Key:
[1] = tested on: Immature female Swiss albino mice; test: In vivo anti-estrogenic activity assay (with estradiol); conditions: for day on which vaginal opening reached 100% / day on which vaginal opening started (delay up to day): flavonoid 30 mg/kg i.p. plus estradiol 12.5 µg/kg s.c., estradiol alone as positive control; for reversal of estradiol-induced vaginal cornification / reduction in uterine weight compared to estradiol alone: 30 mg/kg i.p. plus estradiol; for reduction in uterine weight compared to estradiol alone: 7 days
Protocol: (§1) Immature female Swiss albino mice (8-13 g) were obtained from the animal house of the Faculty of Pharmacy, The British University in Egypt. All experimental procedures were conducted in compliance with the Animal Research: Reporting of In Vivo Experiments (ARRIVE) guidelines and the National Institutes of Health guide for the care and use of Laboratory animals (NIH Publication No. 85-23, revised 2011) and were approved by the Ethics Committee, Faculty of Pharmacy, The British University in Egypt (Ex-2101). All experiments were performed during the light phase of a light/dark cycle that was started 1 week after acclimatization. The room temperature was adjusted at 25 ± 2 °C. Mice had free access to food and water during the experiments. The experimental design was adopted from[27],[28]. The mice were randomly divided into 9 groups (7-8 mice each) as follows: Group 1: Negative control (NC) receiving only olive oil, s.c.; Group 2: […] For estrogenic activity, Group 3: Genistein phytoestrogen positive control (Gein.) treated group; Group 4: Quercetin (Qrt.) treated group; Group 5: Naringenin (Narn.) treated group and Group 6: Naringin (Nar.) treated group. For anti-estrogenic activity, estradiol was given after treatments by 6 h for Groups 7, 8 and 9 representing […]., respectively. All treatments including genistein were given at a dose of 30 mg/kg dissolved in Tween 80 (1%), i.p., for 7 days. The animals' weights were recorded daily to ensure the safety of the doses used. On the 7th day, the animals were sacrificed, the morphological appearance of the livers was observed, and the uteri were also isolated and weighed. The in vivo estrogenic and anti-estrogenic activities were assessed. The vaginal opening on each day of the study was checked as a sign of puberty. On the 7th day, vaginal swab was taken from the opened vagina to examine the cornification level under light microscope (4× lens). The uteri were excised and weighed after sacrification of mice under anesthesia.

MCF-7 = test: SRB cytotoxicity assay on MCF7; assay type: cell-based, human; conditions: for IC50: Homo sapiens, MCF7, ± SD, read-out: IC50 values, cytotoxic effect on MCF7
Protocol: (§2) The assessment was performed in the National Cancer Institute in Egypt (NCI). The half maximal inhibitory concentration (IC50) values were then calculated from three independent experiments, three replicates each for each sample.

T47D = test: SRB cytotoxicity assay on T47D; assay type: cell-based, human; conditions: ± SD; for IC50: Homo sapiens, T47D, read-out: IC50 values, cytotoxic effect on T47D
Protocol: as §2

[2] = SRB cytotoxicity assay on normal HFB4 cells; assay type: cell-based, human; conditions: human, normal HFB4 cells, ± SD, read-out: IC50 values, cytotoxic effect on HFB4
Protocol: (§3) The cytotoxic activity of the ethanolic extracts of the peels along with the isolated major phenolics was tested against two human estrogen-dependent breast cancer cell lines, namely, MCF-7 and T47D, as well as the normal human HFB4 cells for assessment of toxicity, using the sulforhodamine B (SRB) assay. The assessment was performed in the National Cancer Institute in Egypt (NCI). The half maximal inhibitory concentration (IC50) values were then calculated from three independent experiments, three replicates each for each sample.

[3] = tested on: Immature female Swiss albino mice; test: In vivo estrogenic activity assay; conditions: 30 mg/kg i.p.
Protocol: as §1

Aromatase enzyme (CYP19) = target: T1, Aromatase enzyme (CYP19) (Homo sapiens, UniProt P11511); test: In vitro aromatase inhibition assay (dibenzylfluorescein); assay type: biochemical; conditions: ± SD
T1 construct: purchased BD Biosciences, San Jose, CA
T1 sequence (P11511 1-503): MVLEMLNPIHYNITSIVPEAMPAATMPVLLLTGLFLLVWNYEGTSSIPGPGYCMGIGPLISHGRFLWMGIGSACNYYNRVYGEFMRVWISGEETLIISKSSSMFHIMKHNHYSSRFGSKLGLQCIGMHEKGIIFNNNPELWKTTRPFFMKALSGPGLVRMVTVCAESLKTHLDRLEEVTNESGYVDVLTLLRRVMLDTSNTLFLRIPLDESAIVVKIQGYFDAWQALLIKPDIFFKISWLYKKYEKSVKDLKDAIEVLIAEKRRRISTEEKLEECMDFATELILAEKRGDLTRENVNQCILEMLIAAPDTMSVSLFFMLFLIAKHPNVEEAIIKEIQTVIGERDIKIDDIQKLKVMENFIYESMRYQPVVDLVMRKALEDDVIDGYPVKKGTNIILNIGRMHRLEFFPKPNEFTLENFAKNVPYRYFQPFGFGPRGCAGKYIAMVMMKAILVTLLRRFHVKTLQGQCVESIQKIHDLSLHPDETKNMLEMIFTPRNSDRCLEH
Protocol: Aromatase inhibition was quantified by measuring the fluorescent intensity of fluorescein, the hydrolysis product of dibenzylfluorescein, by aromatase, as previously described[29]. In brief, the test substance (10 µL) was pre-incubated with the NADPH regenerating system (90 µL of 2.6 mM NADP^+, 7.6 mM glucose 6-phosphate, 0.8 U/mL glucose 6-phosphate dehydrogenase, 13.9 mM MgCl2, and 1 mg/mL albumin in 50 mM potassium phosphate, pH 7.4) for 10 min at 37 °C before 100 µL of the enzyme and substrate mixture [4 pmol/well enzyme (CYP19, BD Biosciences, San Jose, CA), 0.4 µM dibenzylfluorescein, and 4 mg/mL albumin in 50 mM potassium phosphate, pH 7.4] were added. Then, the reaction mixture was incubated for 30 min at 37 °C to allow aromatase to generate the product and quenched with 75 µL of 2 N NaOH. After the reaction was terminated, shaking was done for 5 min followed by incubation for 2 h at 37 °C to enhance the noise/background ratio, then fluorescence was measured at 485 nm (excitation) and 530 nm (emission). Three independent experiments were performed in duplicates, and the average values were used to construct the dose–response curves.

[4] = tested on: Ehrlich ascites carcinoma (EAC) solid tumor; test: Ehrlich ascites carcinoma (EAC) solid tumor model, tumor volume; assay type: in vivo, mice; conditions: 19th day after treatment; quercetin 100, naringenin 50, naringin 100 mg/kg i.p. daily
Source text: In order to evaluate the anticancer effect of the active isolates (quercetin, naringenin and naringin) and their potential to decrease aromatase levels in tumours, an animal model of Ehrlich ascites carcinoma (EAC) solid tumour was used followed by aromatase ELISA assay as will be described later. Swiss albino female mice (20-25 g) were used for the experiment. EAC cells were collected from the ascitic fluid of a female Swiss albino mouse bearing a 10-day old ascitic tumor where approximately 2.5 × 10^6 cells were transplanted, i.m. in the left thigh of female mice. When tumors became palpable (approximately 200-300 mm^3 in volume), treatment was initiated. Forty EAC-tumour bearing mice were randomly allocated into the following groups (n = 10): (1) PC group: positive control group that received only drug vehicle, (2) Qrt.-treated group: Mice were treated with a daily dose of 100 mg/kg of quercetin[30] i.p., (3) Narn.-treated group: Mice were treated with a daily dose of 50 mg/kg of naringenin, i.p.[31], and (4) Nar.-treated group: […] Treatment doses were given daily excluding Fridays and Saturdays. Tween 80 (1%) was used as a vehicle. Mice were sacrificed under brief anaesthesia at the 20th day after starting treatment and tumors were collected for further analysis. Tumor volume was calculated using a digital caliper at days 0, 4, 7, 10, 13, 16, and 19 after treatment, according to the following equation[33]: […]

Aromatase = Aromatase protein levels in EAC solid tumors (ELISA); assay type: in vivo, mice; conditions: for aromatase levels in tumors, lower than positive control group: ELISA on tumor homogenates, day 20, quercetin 100, naringenin 50, naringin 100 mg/kg i.p.
Source text: EAC cells were collected from the ascitic fluid of a female Swiss albino mouse bearing a 10-day old ascitic tumor where approximately 2.5 × 10^6 cells were transplanted, i.m. in the left thigh of female mice. When tumors became palpable (approximately 200–300 mm^3 in volume), treatment was initiated. Forty EAC-tumour bearing mice were randomly allocated into the following groups (n = 10): (1) PC group: positive control group that received only drug vehicle, (2) Qrt.-treated group: Mice were treated with a daily dose of 100 mg/kg of quercetin[30] i.p., (3) Narn.-treated group: Mice were treated with a daily dose of 50 mg/kg of naringenin, i.p.[31], and (4) Nar.-treated group: Mice were treated with a daily dose of 100 mg/kg of naringin, i.p.[32]. Treatment doses were given daily excluding Fridays and Saturdays. Tween 80 (1%) was used as a vehicle. Mice were sacrificed under brief anaesthesia at the 20th day after starting treatment and tumors were collected for further analysis.
Excised tumors were homogenized as 10% (w/v) in phosphate buffered saline. Aromatase concentration was then determined in tissue homogenates using Mouse Aromatase ELISA kit (MyBiosource, USA), according to the manufacturer’s instructions. Optical density equivalent to aromatase levels in samples was determined at 450 nm using a microplate reader.

[5] = design: method as in PMID 21964193; conditions: naringin 40 and naringenin 80 mg/kg, respectively; cited from earlier work
HFB4 cells = test: SRB cytotoxicity assay on normal HFB4 cells; assay type: cell-based, human; conditions: ± SD
Protocol: as §3

uterine weight = tested on: uterine weight; design: method as in PMID 25337190; conditions: cited from earlier work
[6] = tested on: estrogen-induced uterine weight; conditions: 30 mg/rat co-treated with estradiol (0.5 µg/rat); cited from earlier work

Compound	day on which vaginal opening reached 100% [1]	day on which vaginal opening started (delay up to day) [1]	IC50 (MCF-7)	IC50 (T47D)	IC50 [2]	average uterine weight ([3]; 7 days, no estradiol)	reversal of estradiol-induced vaginal cornification [1]	reduction in uterine weight compared to estradiol alone [1]	decrease in tumor volume compared to positive control [4]	other results
C[C@]12CC[C@@H]3c4ccc(OC(=O)c5ccccc5)cc4CC[C@H]3[C@@H]1CC[C@@H]2O [estradiol, Estradiol benzoate, reference compound]	5 days	2 days	–	–	–	–	–	–	–	body weight ([1]; 7 days treatment): 15.6 ± 1.8 g; uterine weight ([1]; estradiol alone 12.5 µg/kg s.c.): 215.0 ± 64.4 mg
COc1ccc(-c2cc(=O)c3c(O)cc(O[C@@H]4O[C@H](CO[C@@H]5O[C@@H](C)[C@H](O)[C@@H](O)[C@H]5O)[C@@H](O)[C@H](O)[C@H]4O)cc3o2)cc1O [C3, 5,3′-dihydroxy-4′-methoxy flavone-7O-α-L-rhamnopyranosyl (1 → 6)β-D-glucopyranoside]	–	–	> 50 mg/L	> 50 mg/L	> 50 mg/L	–	–	–	–	–
O=c1c(-c2ccc(O)cc2)coc2cc(O)cc(O)c12 [genistein, reference compound]	–	–	–	–	–	20.0 ± 7.5 mg	–	–	–	vaginal cornification ([3]; day 7 swab): mild vaginal cornification
C[C@@H]1O[C@@H](O[C@H]2[C@H](Oc3cc(O)c4c(c3)O[C@H](c3ccc(O)cc3)CC4=O)O[C@H](CO)[C@@H](O)[C@@H]2O)[C@H](O)[C@H](O)[C@H]1O [C8]	7 days	3 days	2 ± 0.98 mg/L (≈ 3.45 µM)	3.63 ± 0.1 mg/L (≈ 6.25 µM)	> 50 mg/L	17.0 ± 2.6 mg	not fully reversed	57.7%	71.47%	IC50 (Aromatase enzyme (CYP19)): 3.26 µM; aromatase levels in tumors, lower than positive control group (Aromatase): 59.36%; estrogenic and anti-estrogenic activities [5]: double directional estrogenic and anti-estrogenic activities
C[C@@H]1O[C@@H](OC[C@H]2O[C@@H](Oc3c(-c4ccc(O)c(O)c4)oc4cc(O)cc(O)c4c3=O)[C@H](O)[C@@H](O)[C@@H]2O)[C@H](O)[C@H](O)[C@H]1O [C7, 5,7,3′,4′-tetrahydroxy flavon-3O-α-L-rhamnopyranosyl (1 → 6)β-D-glucopyranoside]	–	–	> 50 mg/L	> 50 mg/L	> 50 mg/L	–	–	–	–	–
COc1ccc([C@@H]2CC(=O)c3c(O)cc(O[C@@H]4O[C@H](CO[C@@H]5O[C@@H](C)[C@H](O)[C@@H](O)[C@H]5O)[C@@H](O)[C@H](O)[C@H]4O)cc3O2)cc1O [C5, 5,3′-dihydroxy-4′-methoxy flavanone-7O-α-L-rhamnopyranosyl (1 → 6)β-D-glucopyranoside]	–	–	–	–	–	–	–	–	–	IC50 values, cytotoxic effect on MCF7 (MCF-7; ± SD): – ((−) no activity in a concentration up to 50 µg/mL); IC50 values, cytotoxic effect on T47D (T47D): – ((−) no activity in a concentration up to 50 µg/mL); IC50 values, cytotoxic effect on HFB4 (HFB4 cells): – ((−) no activity in a concentration up to 50 µg/mL)
COc1ccc(C2CC(=O)c3c(O)cc(O)cc3O2)cc1O (centres unmarked) [C6, 5,7,3′-trihydroxy-4′-methoxy flavanone]	–	–	4.96 ± 0.89 mg/L (≈ 16.4 µM)	3.53 ± 0.19 mg/L (≈ 11.7 µM)	> 50 mg/L	–	–	–	–	–
COc1ccc(-c2cc(=O)c3c(OC)c(OC)c(OC)c(OC)c3o2)cc1OC [C1, 5,6,7,8,3′,4′-hexamethoxy flavone]	–	–	> 50 mg/L	> 50 mg/L	> 50 mg/L	–	–	–	–	–
O=c1c(O)c(-c2ccc(O)c(O)c2)oc2cc(O)cc(O)c12 [C2, 5,7,3′,4′-tetrahydroxy flavonol]	4 days	2 days	2.11 ± 0.71 mg/L (≈ 6.98 µM)	1.81 ± 0.28 mg/L (≈ 5.99 µM)	> 50 mg/L	13.0 ± 3.0 mg	not fully reversed	48%	61.71%	day on which vaginal opening started ([3]; 7 days, no estradiol): 6 days; reduction in aromatase levels as compared to naringenin (Aromatase; EAC tumors, ELISA): 26.4%; reduction in aromatase levels as compared to naringin (Aromatase; EAC tumors, ELISA): 32%; aromatase levels in tumors, lower than positive control group (Aromatase): 72.35%; effect on the uterine weight upon treatment with steroid (uterine weight; 10 mg/kg): anti-estrogenic effect; estrogenic effect at higher dose (uterine weight; 100 mg/kg): potent estrogenic effect
O=C1CC(c2ccc(O)cc2)Oc2cc(O)cc(O)c21 (centres unmarked) [C4, 5,7,4′-trihydroxy flavanone]	7 days	5 days	1.12 ± 0.09 mg/L (≈ 4.11 µM)	1.93 ± 0.07 mg/L (≈ 7.09 µM)	> 50 mg/L	16.0 ± 3.7 mg	not fully reversed	58%	73.26%	effect on estrogen-induced uterine weight [6]: significant decrease in estrogen-induced uterine weight; estrogenic and anti-estrogenic activities [5]: double directional estrogenic and anti-estrogenic activities
